The source of these data is PubChem BioAssay AID330 (DTP/NCI, 2004).

Molecules are shown by their SMILES. Several values for one entry are separate records, joined by “and”; a condition that tells them apart may be missing. Identical values can stand only once. Toxic doses and inconclusive results are not listed.

The assay concerns P388 leukemia ip, CD2F1 mice, survival T/C. As to the kind of experiment: NCI In Vivo Anticancer Drug Screen. Data for tumor model P388 Leukemia (intraperitoneal) in CD2F1 (CDF1) mice. To be noted: endpoint: median survival time, higher = longer survival. In outline: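 Mice carrying the transplanted tumor received test compound or vehicle. Survival was recorded in each group, and the value is the treated-group measurement divided by that of the vehicle-treated control group.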

Where [1] appears, read: dose: 50.0 mg/kg/injection, schedule: Q01DX009 (ip), vehicle: saline with Tween-80.
The mark [2] stands for this setting: dose: 100.0 mg/kg/injection, schedule: Q01DX009 (ip), vehicle: saline with Tween-80.
[3] abbreviates: dose: 6.25 mg/kg/injection, schedule: Q01DX009 (ip), vehicle: saline with Tween-80.
Setting [4] is: dose: 12.5 mg/kg/injection, schedule: Q01DX009 (ip), vehicle: saline with Tween-80.
[5] abbreviates: dose: 25.0 mg/kg/injection, schedule: Q01DX009 (ip), vehicle: saline with Tween-80.
The mark [6] stands for this setting: dose: 60.0 mg/kg/injection, schedule: Q01DX005 (ip), vehicle: saline with Tween-80.
The mark [7] stands for this setting: dose: 120.0 mg/kg/injection, schedule: Q01DX005 (ip), vehicle: saline with Tween-80.
The mark [8] stands for this setting: dose: 240.0 mg/kg/injection, schedule: Q01DX005 (ip), vehicle: saline with Tween-80.
Where [9] appears, read: dose: 50.0 mg/kg/injection, schedule: Q01DX009 (ip), vehicle: Klucel (hydroxypropylcellulose) (HPC).
The mark [10] stands for this setting: dose: 100.0 mg/kg/injection, schedule: Q01DX009 (ip), vehicle: Klucel (hydroxypropylcellulose) (HPC).
Setting [11] is: dose: 200.0 mg/kg/injection, schedule: Q01DX009 (ip), vehicle: Klucel (hydroxypropylcellulose) (HPC).
[12] abbreviates: dose: 12.5 mg/kg/injection, schedule: Q01DX009 (ip), vehicle: saline.
The mark [13] stands for this setting: dose: 25.0 mg/kg/injection, schedule: Q01DX009 (ip), vehicle: saline.
Setting [14] is: dose: 50.0 mg/kg/injection, schedule: Q01DX009 (ip), vehicle: saline.
[15] abbreviates: dose: 12.5 mg/kg/injection, schedule: Q01DX005 (ip), vehicle: Klucel (hydroxypropylcellulose) (HPC).
[16] abbreviates: dose: 25.0 mg/kg/injection, schedule: Q01DX005 (ip), vehicle: Klucel (hydroxypropylcellulose) (HPC).
Setting [17] is: dose: 50.0 mg/kg/injection, schedule: Q01DX005 (ip), vehicle: Klucel (hydroxypropylcellulose) (HPC).
Setting [18] is: dose: 100.0 mg/kg/injection, schedule: Q01DX005 (ip), vehicle: Klucel (hydroxypropylcellulose) (HPC).

Turning to `CCCC(NC)C(CC)CN` (configuration not stated), the T/C runs as follows: under setting [1], 95 % of control; under setting [2], 100 % of control.

Regarding `NC1=NC(c2c3ccccc3cc3ccccc23)N=C(Nc2cccc(Cl)c2)N1` (configuration not stated), the T/C is, setting by setting: under setting [3], 107 % of control; under setting [4], 114 % of control; under setting [1], 95 % of control.

As for `CCOP(=O)(O)SP(=O)(O)OCC.[Zn+2]`, the T/C by setting is: under setting [5], 109 % of control; under setting [1], 103 % of control and 115 % of control.

For the compound `CC1(Cn2ccc(=O)[nH]c2=O)CC(C2(C)OCCO2)C(=O)O1` (configuration not stated), the T/C under setting [6] is 102 % of control, the T/C under setting [7] is 102 % of control and the T/C under setting [8] was 101 % of control.

On to `CC12CC3CC(C)(C1)CC(C(Cl)C(=O)NC(C)(C)C)(C3)C2` (configuration not stated), for which the T/C reads like this: under setting [9], 97 % of control; under setting [10], 100 % of control; under setting [11], 93 % of control.

With `CC(=O)C1CCC2=C(C1)C(=O)c1cc3c(cc1C2=O)C1(c2ccccc2)OC3(c2ccccc2)C2C(=O)N(c3ccccc3)C(=O)C21` (configuration not stated), the T/C runs as follows: (dose: 60.0 mg/kg/injection, schedule: Q01DX005 (ip), vehicle: Klucel (hydroxypropylcellulose) (HPC)) 90 % of control; (dose: 120.0 mg/kg/injection, schedule: Q01DX005 (ip), vehicle: Klucel (hydroxypropylcellulose) (HPC)) 88 % of control.

On to `CC(C)(C)C(=O)OCCOCCOC(=O)c1ccccc1`, for which the T/C under setting [9] is 95 % of control, the T/C under setting [10] is 104 % of control and the T/C under setting [11] is 102 % of control.

For `C[n+]1c(-c2cccc(OCCCCCCCCCCCCCCCCOc3cccc(-c4c5cc(N)ccc5c5ccc(N)cc5[n+]4C)c3)c2)c2cc(N)ccc2c2ccc(N)cc21`, the T/C is, setting by setting: (dose: 0.39 mg/kg/injection, schedule: Q01DX009 (ip), vehicle: water) 117 % of control; (dose: 0.78 mg/kg/injection, schedule: Q01DX009 (ip), vehicle: water) 117 % of control; (dose: 1.56 mg/kg/injection, schedule: Q01DX009 (ip), vehicle: water) 98 % of control and 119 % of control; (dose: 3.12 mg/kg/injection, schedule: Q01DX009 (ip), vehicle: water) 113 % of control; (dose: 6.25 mg/kg/injection, schedule: Q01DX009 (ip), vehicle: water) 179 % of control.

Turning to `ClC(Cl)(Cl)C(c1cccs1)c1cccs1`, the T/C under setting [9] is 103 % of control; the T/C under setting [10] is 100 % of control; the T/C under setting [11] was 109 % of control; the T/C (dose: 400.0 mg/kg/injection, schedule: Q01DX009 (ip), vehicle: Klucel (hydroxypropylcellulose) (HPC)) was 104 % of control.

Regarding `CC1(C)N=C(N)N=C(N)N1c1cccc(CCCCOc2ccccc2)c1`, the T/C was 150 % of control (dose: 3.13 mg/kg/injection, schedule: Q01DX009 (ip), vehicle: saline with Tween-80); 150 % of control under setting [3]; 113 % of control (dose: 6.25 mg/kg/injection, schedule: Q04DX003 (ip), vehicle: saline with Tween-80); 154 % of control under setting [4]; 109 % of control (dose: 12.5 mg/kg/injection, schedule: Q04DX003 (ip), vehicle: saline with Tween-80); 95 % of control (dose: 18.0 mg/kg/injection, schedule: Q01DX009 (ip), vehicle: saline with Tween-80).

Take `CCO/C=C1/N=C(Cc2ccc(Br)cc2)OC1=O`: the T/C is 94 % of control under setting [6] and 90 % of control under setting [7].

As to `CCN(CC)CCCCCNc1cc(Cl)c(Cl)cc1[N+](=O)[O-]`, the T/C was 99 % of control under setting [12], 95 % of control under setting [13] and 107 % of control under setting [14].

For `Cc1c[nH]c2nc(C)n(-c3ccc(Cl)cc3)c(=N)c12`, the T/C is 98 % of control under setting [15], 104 % of control under setting [16] and 103 % of control under setting [17].

In the case of `CC(=O)C(C(=O)Nc1cccc2ccccc12)C(C)=NCC(C)N=C(C)C(C(C)=O)C(=O)Nc1cccc2ccccc12.[Cu]` (configuration not stated), the T/C is, setting by setting: (dose: 12.5 mg/kg/injection, schedule: Q01DX005 (ip), vehicle: saline + Tween-80 + alcohol) 110 % of control; (dose: 25.0 mg/kg/injection, schedule: Q01DX005 (ip), vehicle: saline + Tween-80 + alcohol) 96 % of control; (dose: 50.0 mg/kg/injection, schedule: Q01DX005 (ip), vehicle: saline + Tween-80 + alcohol) 105 % of control.

`OC(COc1cccc(C(F)(F)F)c1)CN1CCN(c2ccc(F)cc2)CC1` (configuration not stated): the T/C runs as follows: under setting [4], 100 % of control; (dose: 25.0 mg/kg/injection, schedule: Q01DX009 (ip), vehicle: distilled water + Tween-80) 106 % of control; under setting [5], 106 % of control; (dose: 50.0 mg/kg/injection, schedule: Q01DX009 (ip), vehicle: distilled water + Tween-80) 108 % of control; under setting [1], 124 % of control.

On to `O=S(=O)(O)Cc1ccc(CS(=O)(=O)O)cc1`, for which the T/C was 93 % of control (dose: 12.5 mg/kg/injection, schedule: Q04DX002 (ip), vehicle: saline); 102 % of control (dose: 25.0 mg/kg/injection, schedule: Q04DX002 (ip), vehicle: saline); 98 % of control (dose: 50.0 mg/kg/injection, schedule: Q04DX002 (ip), vehicle: saline).

Consider `CC(=NC(C)C)N1CCCCC1`, for which the T/C under setting [14] was 101 % of control and the T/C (dose: 100.0 mg/kg/injection, schedule: Q01DX009 (ip), vehicle: saline) is 101 % of control.

Consider `CCCCCCCCCCCCCC[N+]1([O-])CCCCCC1`, for which the T/C under setting [14] was 90 % of control.

For the compound `CC1=NN(C(C)(C)C)[Si](C)(C)C1`, the T/C is, setting by setting: under setting [16], 96 % of control; under setting [17], 93 % of control; under setting [18], 97 % of control.

On to `Nc1nnc(-c2ccc(Br)cc2)o1`, for which the T/C is 106 % of control under setting [6], 109 % of control under setting [7] and 114 % of control under setting [8].

Turning to `Cc1cc(CC(O)(c2ccccc2)c2ccccc2)nc2[nH]c(=O)ccc12`, the T/C reads like this: under setting [16], 97 % of control; under setting [17], 103 % of control; under setting [18], 98 % of control; (dose: 200.0 mg/kg/injection, schedule: Q01DX005 (ip), vehicle: Klucel (hydroxypropylcellulose) (HPC)) 96 % of control.

In the case of `CC(=O)ON(C(=O)c1ccccc1)c1ccccc1`, the T/C was 104 % of control under setting [6], 102 % of control under setting [7] and 99 % of control under setting [8].

For the compound `Cc1nc2ccccc2c(=O)n1/N=C1\C(=O)N(C)c2ccccc21`, the T/C by setting is: under setting [15], 100 % of control; under setting [16], 96 % of control; under setting [17], 91 % of control and 96 % of control; under setting [18], 105 % of control.

As to `C[Si](C)(CCCOCC1CO1)O[Si](C)(C)CCCOCC1CO1` (configuration not stated), the T/C reads like this: under setting [2], 100 % of control; (dose: 200.0 mg/kg/injection, schedule: Q01DX009 (ip), vehicle: saline with Tween-80) 101 % of control; (dose: 400.0 mg/kg/injection, schedule: Q01DX009 (ip), vehicle: saline with Tween-80) 114 % of control.

In the case of `CCc1ccc(NC2=NCCO2)cc1`, the T/C runs as follows: under setting [4], 100 % of control; under setting [5], 105 % of control; under setting [1], 100 % of control.

Turning to `CN(C)c1ccc(/C=C(\NC(=O)c2ccccc2)c2nc3ccccc3s2)cc1`, the T/C is 105 % of control under setting [6]; 116 % of control under setting [7]; 106 % of control (dose: 200.0 mg/kg/injection, schedule: Q01DX005 (ip), vehicle: saline with Tween-80).

With `O=C1SC(Nc2ccc(Br)cc2)/C(=N\N=C2/C(Nc3ccc(Br)cc3)SC(=O)N2Cc2ccccc2)N1Cc1ccccc1` (configuration not stated), the T/C reads like this: (dose: 100.0 mg/kg/injection, schedule: Q04DX002 (ip), vehicle: Klucel (hydroxypropylcellulose) (HPC)) 97 % of control; (dose: 200.0 mg/kg/injection, schedule: Q04DX002 (ip), vehicle: Klucel (hydroxypropylcellulose) (HPC)) 91 % of control; (dose: 400.0 mg/kg/injection, schedule: Q04DX002 (ip), vehicle: Klucel (hydroxypropylcellulose) (HPC)) 91 % of control.

As to `CCCCCCCCCCCCCCCC[N+](C)(C)CCN`, the T/C under setting [12] was 93 % of control, the T/C under setting [13] is 99 % of control and the T/C under setting [14] was 106 % of control.
